Data reported in patent US7989495B2, “Compositions and methods for inhibiting NF-κB mediated tumorigenicity and adhesion dependent survival of cancer cells” (University of Utah Research Foundation, priority 2002, dated 2011).

Assays:
Assay type in all cases: cell-based
[1] = system: 293-COX-2 cells; assay: Apoptosis of 293 cells with ponasterone-inducible COX-2; details: 8 hours
Protocol: The transiently suspended cells were lysed and allowed to bind to DNA oligonucleotides, containing the NF-κB consensus binding site, that were immobilized to 96-well plates. NF-κB protein bound to the oligonucleotides was detected by an antibody to the p65 subunit that only recognized p65 that is bound to DNA. The positive control was HeLa cells that were stimulated with TNFα A control was performed using excess free NF-κB oligonucleotides (Competitor). […] NF-κB binding activity was determined by the TransAM assay as in FIG. 5A. […] The data shown represent typical results of three separate experiments. […] An immunoblot for COX-2 was performed.
DLD-1, HCT-116, and HT-29 colon cancer cell lines were obtained from the ATCC collection and were cultured in Dulbecco's Modification of Eagle's Medium supplemented with 10% fetal bovine serum, glutamine, penicillin, and streptomycin. […]
Single cell suspensions were plated at 100,000 cells per well in 24-well plates in media containing DMSO, BAY 11-7082, BAY 11-7085, or MG-132 for 8-24 hours in an incubator. […] 400 μl of binding buffer was added to each tube and the cells were analyzed by flow cytometry immediately. The percent of apoptosis was determined as the percent of annexin V-positive, propidium iodide-negative cells of the total cells counted. […]

[2] = system: FLIP (54 kilodalton long isoform); assay: Immunoblot of anti-apoptotic proteins in HT-29 cells; details: adherent HT-29; 20 μM
Protocol: (§1) The data points represent the means of triplicate experiments and the error bars the standard errors of the means. […] The percent of apoptotic cells was then determined by the annexin V assay. […] The results shown are typical of two separate experiments. […] Immunoblots were performed for c-IAP-2, TRAF-1, TRAF-2, and FLIP. All lanes contain equal total protein.
(§2) The cells were washed twice in ice cold PBS and then lysed in 4° C. lysis buffer (50 mM HEPES, 150 mM NaCl, 1.5 mM MgCl2, 1 mM EGTA, 100 mM NaF, 10 mM Na2PO4, 1 mM Na3VO4, 10% glycerol, 1% Triton X-100, and 1 μg/ml each of aprotinin, leupeptin, chymostatin, pepstatin) and clarified at 12,000 rpm at 4° C. for 15 minutes. The lysates were normalized for total protein concentration. Aliquots of the lysates were then mixed 1:1 in sample buffer (125 mM Tris-HCl (pH 6.8), 20% glycerol. 4% sodium dodecyl sulfate, 2% beta-mercaptoethanol, 10 μg/ml bromophenol blue) and boiled for 3 minutes. The samples were loaded onto SDS-PAGE gels (7.5 or 10% acrylamide). The proteins were transferred to nitrocellulose from the gels, then incubated in blocking buffer (1% bovine serum albumin (Bio-Rad), 100 mM Tris-Cl (pH7.4), 0.9% NaCl, 0.1% Nonidet) overnight at 4° C.
(§3) For immunodetection, the blocked blots were probed with primary antibody for 2 hours at 4° C. on a rocker. The blots were washed twice for 10 minutes each in blocking buffer, then incubated with a 1:2000 dilution of a rabbit-anti-mouse secondary antibody (for monoclonal primary antibodies; for polyclonal antibodies, this step was skipped). After two washes in blocking buffer (150 mM NaCl, 20 mM Tris pH 7.4, 0.5% Tween 20, 5% bovine serum albumin, and 0.2 gm/500 ml final concentration of sodium azide), the blots were finally incubated with a 1:2000 dilution of alkaline phosphatase-conjugated rabbit-anti-mouse antibodies (Jackson) in blocking buffer. Alkaline phosphatase was detected by a colorimetric reaction using a BCIP (5-Bromo-4-Chloro-3-Indolyl phosphate)/NBT (Nitroblue tetrazolium) kit (Zymed).

[3] = system: TRAF-2; assay: as above; details: 20 μM, 8 hours
Protocol: as §1, §2, §3

[4] = system: TRAF-1; assay: as above; details: 20 μM, 8 hours
Protocol: as §1, §2, §3

[5] = system: c-IAP-1; assay: as above; details: transiently suspended or adherent HT-29; 20 μM; 8 hours
Protocol: as §1, §2, §3

`CC(C)(C)c1ccc(S(=O)(=O)/C=C/C#N)cc1` [BAY 11-7085, (2E)-3-[4-(tertiarybutylphenyl)sulfonyl]-2-propenenitrile] was tested, and the apoptosis following treatment ([1]; ponasterone-induced (1 μg/ml, 48 hours) 293-COX-2 cells) was “marked increase in BAY 11-7085-induced apoptosis”, the apoptosis following treatment ([1]; uninduced 293-COX-2 cells) was “no increase in apoptosis” and the “expression of the 54 kilodalton (long) isoform of FLIP” value [2] was “only a slight diminution”. The TRAF-2 protein expression [3] was “decrease in the protein expression”, the TRAF-1 protein expression [4] was “decrease in the protein expression” and the c-IAP-1 protein expression [5] was “No decrease in c-IAP-1 protein expression”.
